Source: patent US9260439B2, “Dihydropyrrolopyrimidine derivatives” (PFIZER INC., priority 2014, dated 2016)
Where a name gives a salt, the structure may show the parent alone.

These compounds were tested against truncated PI3Kα (p110α/iSH2 p85α) (Homo sapiens (Human), UniProt P42336) (assay: PI3KA_Act fluorescence polarization kinase assay (Ki)). Details: 1 mM ATP.
Type: biochemical
Source text: 2) p110α-iSH2 p85α Complex (Full Length p110α and p85α iSH2)(“PI3KA_Act”)
Genes encoding for full length p110α and p85α nSH-iSH2=niSH2 (p85a aminoacids 322-600) subunits of PI3Kα complex were subcloned from existing constructs into pFASTBAC Dual vector (Life Technologies, Carlsbad, Calif.) using standard cloning procedures. Gene encoding p110α subunit was subcloned into polyhedrine promoter while gene encoding p85α niSH2 domains was subcloned into p10 promoter. Additionally, Human Rhinovirus 3C Protease (“HRV 3C”) site was introduced between nSH2 and iSH2, replacing aminoacids 431-438 of p85α with […] HRV 3C recognition sequence, using standard QuickChange mutagenesis protocol (Agilent Technologies, CA). Recombinant baculovirus was generated using Bac-to-Bac protocol (Life Technologies, Carlsbad, Calif.). Large scale expression was conducted in Sf21 (Life Technologies, Carlsbad, Calif.) cells at a multiplicity of infection (“MOI”)=1 for 48 hours. Cells were lyzed in 50 mM Tris pH 8.0, 250 mM NaCl, 5% glycerol, 0.25 mM TCEP, and 20 mM imidazole. The p110α-niSH2 p85α complex was purified from clarified supernatant using Immobilized Metalo Affinity Chromatography (“IMAC”). The protein was eluted from the column using 50 mM Tris pH 8.0, 200 mM NaCl, 0.25 mM TCEP, and 200 mM imidazole. Following elution p110α-niSH2 p85α complex was dialyzed against 4 liters of 50 mM Tris pH 8.0, 200 mM NaCl, 0.25 mM TCEP, and 40 mM imidazole in the presence of PreScission Protease (1:70 molar ratio of Protease to Protein) and TEV protease (1:40 molar ratio protease to protein) for 16 hours at 4° C. The protein was further purified using reverse IMAC to remove cleaved histidine tag and contaminants captured during initial IMAC purification. The mixture of p110α-iSH2 p85α complex and cleaved nSH2 was recovered in reverse IMAC 40 mM imidazole flow through and 60 mM imidazole wash fractions. Those fractions were pulled together and loaded on Superdex 200 26/60 SEC column equilibrated in 25 mM Tris, pH 8.0, 100 mM NaCl, 2% glycerol, and 2 mM TCEP. Following SEC, chromatography peak fractions containing p110α-iSH2 p85α complex were pulled and concentrated to 4.3 mg/mL. Purity and integrity of the complex was confirmed using LCMS, analytical SEC and SDS-PAGE (sodium dodecyl sulfate polyacrylamide gel electrophoresis) analysis.
The biochemical assays of kinase activity of full-length PI3Kα (full-length p110α/p85a) or truncated PI3Kα (p110α/iSH2 p85a) were conducted using a fluorescence polarization format similar to the procedure of Yuan J., et al., (2011) “PF-04691502, a Potent and Selective Oral Inhibitor of PI3K and mTOR Kinases with Antitumor Activity”, Mol Cancer Ther. 10, 2189-2199. The enzymatic reactions were conducted in 50 μL volumes in 96-well plates. The reactions contained human recombinant PI3Kα (2 nM full-length p110α/p85α or 0.5 nM p110α/iSH2 p85) and 30 μM phosphatidylinositol 4,5-bisphosphate (“PIP2”) (Cayman Chemical Company, Ann Arbor, Mich.) and were sonicated for 1 minute prior to adding PI3Kα enzyme (PI3KA_Act or PI3KA_FL), DMSO or test compound (12-point 3-fold serial dilution, 3 μM top dose, 2° A) DMSO final concentration), 5 mM MgCl2, 50 mM HEPES pH 7.4, 150 mM NaCl, 1 mM DTT ((2S,3S)-1,4-bis(sulfanyl)butane-2,3-diol), and 0.05% 3-[(3-cholamidopropyl)dimethylammonio]-1-propanesulfonate (“CHAPS”). […] The reactions were incubated for 30 min at room temperature, stopped with EDTA pH 8 (10 mM final concentration). In a detection plate, 15 μL of detector/probe mixture, containing 480 nM GST-Grp1 PH domain protein (University of Dundee, Dundee, UK) and 12 nM carboxytetramethylrhodamine (“TAMRA”)-tagged fluorescent phosphatidylinositol (3,4,5)-triphosphate (“PIP3”) (Echelon Biosciences, Inc., Salt Lake City, Utah) in assay buffer, was mixed with 15 μL of kinase reaction mixture. The plate was shaken for 30 minutes and fluorescence polarization values were measured on an LJL Analyst HT plate reader (Molecular Devices, Sunnyvale, Calif.). […]

Chain of truncated PI3Kα (p110α/iSH2 p85α) (P42336 whole entry, the tested form may be a part): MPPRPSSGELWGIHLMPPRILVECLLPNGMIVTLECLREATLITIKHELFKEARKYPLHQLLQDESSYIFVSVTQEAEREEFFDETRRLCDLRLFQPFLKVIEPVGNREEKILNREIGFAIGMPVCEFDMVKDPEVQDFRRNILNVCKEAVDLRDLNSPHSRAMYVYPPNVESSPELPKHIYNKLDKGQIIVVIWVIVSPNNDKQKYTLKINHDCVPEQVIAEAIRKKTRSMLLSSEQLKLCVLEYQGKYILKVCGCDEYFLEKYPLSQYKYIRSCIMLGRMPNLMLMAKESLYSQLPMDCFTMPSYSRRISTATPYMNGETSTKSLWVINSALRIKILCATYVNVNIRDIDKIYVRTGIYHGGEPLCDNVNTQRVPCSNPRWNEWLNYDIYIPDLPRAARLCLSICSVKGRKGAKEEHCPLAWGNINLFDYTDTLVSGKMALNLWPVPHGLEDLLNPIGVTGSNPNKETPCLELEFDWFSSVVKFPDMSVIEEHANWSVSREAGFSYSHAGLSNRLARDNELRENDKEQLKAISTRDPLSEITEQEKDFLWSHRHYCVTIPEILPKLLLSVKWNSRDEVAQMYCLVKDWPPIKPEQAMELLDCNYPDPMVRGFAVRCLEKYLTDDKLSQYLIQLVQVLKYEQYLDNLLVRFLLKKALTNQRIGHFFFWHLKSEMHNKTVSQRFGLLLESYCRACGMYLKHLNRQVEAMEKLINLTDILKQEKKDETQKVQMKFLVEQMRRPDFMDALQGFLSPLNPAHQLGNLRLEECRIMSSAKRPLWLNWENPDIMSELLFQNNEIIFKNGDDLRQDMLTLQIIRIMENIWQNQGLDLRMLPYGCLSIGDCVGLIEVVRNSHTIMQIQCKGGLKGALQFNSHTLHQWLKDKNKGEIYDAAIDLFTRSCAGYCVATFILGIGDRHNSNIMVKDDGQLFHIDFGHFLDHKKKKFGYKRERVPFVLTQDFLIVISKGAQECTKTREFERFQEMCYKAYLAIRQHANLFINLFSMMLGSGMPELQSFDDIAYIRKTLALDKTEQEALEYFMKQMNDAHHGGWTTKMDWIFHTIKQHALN

Compound	PI3KA_Act Ki [nM]	Ki [nM]
CNS(=O)(=O)N1CCC(C)(N2CCc3c(-c4cnc(N)nc4)nc(N4CCOCC4)nc32)C1 (racemic) [Example 162]	<0.018	–
CC(C)(C)OC(=O)N1CCCC(C)(N2CCc3c(-c4cnc(N)nc4)nc(N4CCOCC4)nc32)C1 (racemic) [Example 434, tert-butyl 3-[4-(2-aminopyrimidin-5-yl)-2-(morpholin-4-yl)-5,6-dihydro-7H-pyrrolo[2,3-d]pyrimidin-7-yl]-3-methylpiperidine-1-carboxylate]	0.220	–
CS(=O)(=O)N1CC2CC2(N2CCc3c(-c4cnc(N)nc4)nc(N4CCOCC4)nc32)C1 (racemic) [Example 435, 5-{7-[3-(methylsulfonyl)-3-azabicyclo[3.1.0]hex-1-yl]-2-(morpholin-4-yl)-6,7-dihydro-5H-pyrrolo[2,3-d]pyrimidin-4-yl}pyrimidin-2-amine]	0.132	–
C[C@]1(N2CCc3c(-c4cnc(N)nc4)nc(N4CCOCC4)nc32)CCN(C2CCNC2=O)C1 (single isomer, unassigned) [Example 7]	0.091	–
CCC(C)(O)C(=O)N1CC[C@](C)(N2CCc3c(-c4cnc(N)nc4)nc(N4CCOCC4)nc32)C1 (single isomer, unassigned) [Example 273]	0.087	–
CCC(C)(O)C(=O)N1CC[C@](C)(N2CCc3c(-c4cnc(N)nc4)nc(N4CCOCC4)nc32)C1 (single isomer, unassigned) [Example 274]	0.145	–
CC(C(N)=O)C(=O)N1CC[C@](C)(N2CCc3c(-c4cnc(N)nc4)nc(N4CCOCC4)nc32)C1 (single isomer, unassigned) [Example 316]	0.019	–
C[C@@]1(N2CCc3c(-c4cnc(N)nc4)nc(N4CCOCC4)nc32)CCN(C(=O)C(O)C2CC2)C1 (single isomer, unassigned) [Example 326]	0.048	–
C[C@@]1(N2CCc3c(-c4cnc(N)nc4)nc(N4CCOCC4)nc32)CCN(C(=O)C(O)C2CC2)C1 (single isomer, unassigned) [Example 327]	0.028	–
CC1(C(=O)N2CC[C@](C)(N3CCc4c(-c5cnc(N)nc5)nc(N5CCOCC5)nc43)C2)CCCO1 (single isomer, unassigned) [Example 376]	0.090	–
CN1CCC(N2CC[C@](C)(N3CCc4c(-c5cnc(N)nc5)nc(N5CCOCC5)nc43)C2)C1=O (single isomer, unassigned) [Example 426]	0.051	–
CN1CCC(N2CC[C@](C)(N3CCc4c(-c5cnc(N)nc5)nc(N5CCOCC5)nc43)C2)C1=O (single isomer, unassigned) [Example 427]	0.073	–
C[C@]1(N2CCc3c(-c4cnc(N)nc4)nc(N4CCOCC4)nc32)CCN(C2CCCNC2=O)C1 (single isomer, unassigned) [Example 428]	0.067	–
C[C@]1(N2CCc3c(-c4cnc(N)nc4)nc(N4CCOCC4)nc32)CCN(C2CCCNC2=O)C1 (single isomer, unassigned) [Example 429]	0.160	–
CS(=O)(=O)N1C[C@H]2C[C@@H]1[C@@H]2N1CCc2c(-c3cnc(N)nc3)nc(N3CCOCC3)nc21 (single isomer, unassigned) [Example 439]	–	1.51
CS(=O)(=O)N1C[C@H]2C[C@@H]1[C@@H]2N1CCc2c(-c3cnc(N)nc3)nc(N3CCOCC3)nc21 (single isomer, unassigned) [Example 440]	–	0.178
C[C@H]1COCCN1c1nc(-c2cnc(N)nc2)c2c(n1)N([C@@]1(C)CCN(C3CCNC3=O)C1)CC2 (single isomer, unassigned) [Example 514]	0.068	–
C[C@H]1COCCN1c1nc(-c2cnc(N)nc2)c2c(n1)N([C@@]1(C)CCN(C3CCNC3=O)C1)CC2 (single isomer, unassigned) [Example 515]	<0.081	–
CNC(=O)N1CC[C@@](C)(N2CCc3c(-c4cnc(N)nc4)nc(N4CCOCC4)nc32)C1 [Example 2, (3R)-3-[4-(2-aminopyrimidin-5-yl)-2-(morpholin-4-yl)-5,6-dihydro-7H-pyrrolo[2,3-d]pyrimidin-7-yl]-N,3-dimethylpyrrolidine-1-carboxamide]	0.160	–
Nc1ncc(-c2nc(N3CCOC[C@H]3CO)nc3c2CCN3C2CC(F)(F)C2)cn1 [Example 3, {(3R)-4-[4-(2-aminopyrimidin-5-yl)-7-(3,3-difluorocyclobutyl)-6,7-dihydro-5H-pyrrolo[2,3-d]pyrimidin-2-yl]morpholin-3-yl}methanol]	118.146	–
CC(C)(N)C(=O)N1CC[C@](C)(N2CCc3c(-c4cnc(N)nc4)nc(N4CCOCC4)nc32)C1 [Example 4, 2-amino-1-{(3S)-3-[4-(2-aminopyrimidin-5-yl)-2-(morpholin-4-yl)-5,6-dihydro-7H-pyrrolo[2,3-d]pyrimidin-7-yl]-3-methylpyrrolidin-1-yl}-2-methylpropan-1-one]	0.023	–
C[C@H]1COCCN1c1nc(-c2cnc(N)nc2)c2c(n1)N([C@@]1(C)CCN(C(=O)C(C)(C)N)C1)CC2 [Example 5, 2-amino-1-[(3S)-3-{4-(2-aminopyrimidin-5-yl)-2-[(3S)-3-methylmorpholin-4-yl]-5,6-dihydro-7H-pyrrolo[2,3-d]pyrimidin-7-yl}-3-methylpyrrolidin-1-yl]-2-methylpropan-1-one]	0.024	–

Same assay, conditions: 1 mM ATP, hydrochloride

Compound	PI3KA_Act Ki [nM]
CC1(C(=O)N2CC[C@](C)(N3CCc4c(-c5cnc(N)nc5)nc(N5CCOCC5)nc43)C2)CCCO1 (single isomer, unassigned) [Example 375, hydrochloride]	0.043
CC1(N2CCc3c(-c4cnc(N)nc4)nc(N4CCOCC4)nc32)CCCNC1 (single isomer, unassigned) [Example 431, 5-[7-(3-methylpiperidin-3-yl)-2-(morpholin-4-yl)-6,7-dihydro-5H-pyrrolo[2,3-d]pyrimidin-4-yl]pyrimidin-2-amine hydrochloride]	14.544
CC1(N2CCc3c(-c4cnc(N)nc4)nc(N4CCOCC4)nc32)CCCNC1 (single isomer, unassigned) [Example 432, 5-[7-(3-methylpiperidin-3-yl)-2-(morpholin-4-yl)-6,7-dihydro-5H-pyrrolo[2,3-d]pyrimidin-4-yl]pyrimidin-2-amine hydrochloride]	11.739
C[C@H]1COCCN1c1nc(-c2cnc(N)nc2)c2c(n1)N([C@@]1(C)CCN(C(=O)C3(N)CCOC3)C1)CC2 (single isomer, unassigned) [Example 502, hydrochloride]	0.064
C[C@H]1COCCN1c1nc(-c2cnc(N)nc2)c2c(n1)N([C@@]1(C)CCN(C(=O)C3(N)CCOC3)C1)CC2 (single isomer, unassigned) [Example 503, hydrochloride]	0.091
C[C@H]1COCCN1c1nc(-c2cnc(N)nc2)c2c(n1)N(C1(C)CCCNC1)CC2 (single isomer, unassigned) [Example 517, hydrochloride]	9.319
C[C@H]1COCCN1c1nc(-c2cnc(N)nc2)c2c(n1)N(C1(C)CCCNC1)CC2 (single isomer, unassigned) [Example 518, hydrochloride]	11.285
